Where “and” joins values, the source holds several entries; their conditions need not be identical. Equal values may be shown once.
Experiments:
[1] = In vitro percutaneous absorption and penetration, porcine ear skin; type: in vitro ADME
Description: Fresh porcine ears were obtained from local slaughterhouse. Dorsal side skin was surgically removed from the ears. Hairs were trimmed off with an electric trimmer. Subcutaneous fat was carefully cleaned. […] They were stored at −20° C. until use.
Compound 2 was dispersed into Labrasol® (Gattefosse, France) The mixture was heated to 35° C. and stirred until solubilized. Final concentrations: 0.108% and 0.316%. The final products are clear and somewhat viscous solutions.
The skin samples were mounted on Zyleris' High-Throughput Screening (HTS) station. Each individual cell has a diffusion area of 0.503 cm^2 (8 mm in diameter). The receptor chamber was filled with 2.0 ml of 5% Oleth-20 in 1×PBS buffer, pH 7.4 (10 mM Phosphate, 138 mM NaCl and 2 mM KCl), which was continuously mixed at 200 r.p.m. The screening experiments were carried out at 32±0.1° C. Oleth-20 is a polyethylene glycol ether of Oleyl Alcohol [Poly(oxy-1,2-ethanediyl) 20 mol Ethylene Oxide average molar ratio] (Spectrum Chemical, California).
The samples were dosed at 5 mg for both formulations. Each formulation was run in three replicates. At the end of each time interval (2, 12, and 24 h), the skin surface was wiped with cotton ball. The standard tape-stripping method was used to remove the stratum corneum (SC) layer. Repeated tape-stripping was continued until SC layer was disappeared (15 strips). Compound 2 absorbed in epidermis/dermis layer was collected by solvent extraction with DMSO. After tape-stripping, the remaining skin samples were minced and vortexed with 1.5 ml DMSO. The supernatant was separated. The extraction step was repeated three times. The supernatants were combined and ready for analysis.
The analysis was carried out with a Shimadzu LC-10ADVP instrument with Varian Polaris 3 C18-A, 50×3.0 mm, column. Mobile Phase A: 0.1% formic acid in water. Mobile Phase B: 0.1% formic acid in methanol. Flow rate: 0.4 ml/min.
MS system is an AB Scienx API4000 operated at positive ionization mode. The calibration range is 2.50-25,000 ng/ml.
Quality control of the screening experiments was established by measuring mass balances of a couple of selected runs (spot-check). Measurement of mass balance is to determine total amount of 2 recovered after each experiment. After the selected experiments, total amount of 2 left on the skin surface, absorbed in stratum corneum, in epidermis/dermis layer, and collected in the receptor medium was extracted and determined by LC-MS/MS analysis. The total amount was then compared to the initial dosing amount to determine recovery percentage. Two of the 12 hr runs for the 0.316% formulation was selected for the spot-check. […] They are within acceptable range of 80-120%.

SLP-76 = SLP-76 tyrosine phosphorylation in Jurkat cells, immunoprecipitation and western blot; type: cell-based, human; details: Jurkat cells treated 16 h, up to 1 μM
Description: Jurkat cells were washed in PBS containing Ca^2+ and Mg^2+ (Biological Industries, Beit Haemek), preheated to 37° C. for 15 min, and were either mock stimulated with PBS, or were stimulated for 1 minute with C305 (1:500). Cells were then collected and lysed at a concentration of 2×10^7 cells/ml in cold lysis buffer containing 1% NP-40, 10 mM Tris (pH 7.8), 150 mM NaCl, 1 mM phenylmethylsulfonyl fluoride (PMSF), 2 μg/ml pepstatin A, 1 μg/ml leupeptin, 10 mM sodium pyrophosphate, 0.4 mM EDTA, 0.4 mM sodium orthovanadate, and 50 mM NaF, 50 mM beta-glycerol phosphate pH 7.5 and 20 mM sodium pyrophosphate pH 7.5. After 20 min at 4° C., the lysates were cleared by centrifugation in a microfuge (Eppendorf, centrifuge 5427R) at 16,000×g for 10 min at 4° C. The supernatants were used directly for immunoprecipitation.
Western blots were prepared on nitrocellulose using standard techniques. Membranes were blocked in TBST buffer (10 mM Tris-HCl, pH 7.4 (TBS), 0.2% Tween 20, 170 mM NaCl) containing 5% low-fat milk, then probed overnight with the appropriate primary antibody. […]
Jurkat cells were treated with 2 for 16 h, and SLP-76 phosphorylation was measured by immunoprecipitation of SLP-76 protein followed by western blotting with an antibody to the phosphorylated tyrosines of the protein (FIG. 6A). […]

COc1cc(-c2nc(Nc3ccc(C)cc3)c3ccccc3n2)cc(OC)c1OC [Compound 2, N-p-tolyl-2-(3,4,5-trimethoxyphenyl)quinazolin-4-amine]
skin concentration relative to the IC50 ([1]; after 24 h, 0.3% 2 in Labrasol): 1000 folds | final concentration in the skin (epidermis/dermis) ([1]; after 24 h, initial concentration 0.3% 2 in Labrasol, estimated): higher than 114 μM | penetration of the epidermis/dermis layer ([1]; porcine ears skin, Labrasol formulation): able to penetrate | recovery percentage (mass balance) ([1]; two 12 hr runs, 0.316% formulation): 89% and 114% | tyrosine phosphorylation of SLP-76 (SLP-76): reduced but not abolished

From patent US8759363B2, “Quinazoline-based T cell proliferation inhibitors” (Yissum Research Development Company of the Hebrew …, priority 2010, dated 2014)
